Legend:
[1] = Lipophilicity, shake-flask log D7.4 (1-octanol/PBS); format: physicochemical; settings: 1-octanol/PBS pH 7.4, n = 4
Procedure: Lipophilicity was determined with the shake-flask method as a distribution coefficient between 0.01 M PBS and octanol. Purified radiotracer [^18F]6 (10 μL, ∼200 kBq, 1.5 nmol), [^18F]14 (20 μL, ∼260 kBq, 125 pmol), or [^18F]15 (20 μL, 144 kBq, 67 pmol) in a polypropylene tube containing 1500–2000 μL of each in a 1:1 mixture (1-octanol, 0.02 M PBS, pH 7.4) was shaken mechanically (500 rpm, 10 min) and centrifuged (1000g, 5 min), and samples from each layer (400 μL, n = 4) were measured with a γ-counter. The log D7.4 was calculated as a distribution between the two layers at pH 7.4. [^18F]6 (10 MBq, 40 nmol) diluted with 0.01 M PBS at pH 7.4 (≤1% ethanol, 5300 μL) was incubated for 180 min. At selected time points (5, 30, 60, 90, 120, 150, and 180 min), a sample (100 μL) was injected to radio-HPLC. [^18F]14 and [^18F]15 (29 MBq, 10 nmol) diluted in 2000 μL of 0.01 M PBS (≤1% ethanol) were left to incubate. A sample of [^18F]14 (100 μL) after 9 hours and [^18F]15 at selected time points between 30 and 335 min were injected into HPLC (method A). [^18F]15 (0.6 MBq, 0.134 nmol, 200 μL) formulated in ≤5% EtOH-1 × PBS was added and incubated in 2000 μL of PBS-50% human plasma at 37 °C. A 100 μL sample (at 60, 120, 180, and 240 min, n = 2) was diluted with 200 μL of cold acetonitrile and centrifuged (10,000g, 5 min). After centrifugation, a 100 μL sample of the supernatant was injected for radio-HPLC analysis. […]
Lipophilicity. The lipophilicities were determined with the shake-flask method as a distribution profile between 0.01 M PBS and octanol at pH 7.4. The distribution of the radiolabeled compound between the octanol and the PBS layers was calculated according

[2] = Hydrolytic stability in 0.01 M PBS / formulated solution (radio-HPLC); format: physicochemical; settings: 4% ethanol-0.01 M PBS (pH 7.4)
Procedure: Lipophilicity was determined with the shake-flask method as a distribution coefficient between 0.01 M PBS and octanol. Purified radiotracer [^18F]6 (10 μL, ∼200 kBq, 1.5 nmol), [^18F]14 (20 μL, ∼260 kBq, 125 pmol), or [^18F]15 (20 μL, 144 kBq, 67 pmol) in a polypropylene tube containing 1500–2000 μL of each in a 1:1 mixture (1-octanol, 0.02 M PBS, pH 7.4) was shaken mechanically (500 rpm, 10 min) and centrifuged (1000g, 5 min), and samples from each layer (400 μL, n = 4) were measured with a γ-counter. The log D7.4 was calculated as a distribution between the two layers at pH 7.4. [^18F]6 (10 MBq, 40 nmol) diluted with 0.01 M PBS at pH 7.4 (≤1% ethanol, 5300 μL) was incubated for 180 min. At selected time points (5, 30, 60, 90, 120, 150, and 180 min), a sample (100 μL) was injected to radio-HPLC. [^18F]14 and [^18F]15 (29 MBq, 10 nmol) diluted in 2000 μL of 0.01 M PBS (≤1% ethanol) were left to incubate. A sample of [^18F]14 (100 μL) after 9 hours and [^18F]15 at selected time points between 30 and 335 min were injected into HPLC (method A). [^18F]15 (0.6 MBq, 0.134 nmol, 200 μL) formulated in ≤5% EtOH-1 × PBS was added and incubated in 2000 μL of PBS-50% human plasma at 37 °C. A 100 μL sample (at 60, 120, 180, and 240 min, n = 2) was diluted with 200 μL of cold acetonitrile and centrifuged (10,000g, 5 min). After centrifugation, a 100 μL sample of the supernatant was injected for radio-HPLC analysis.

[3] = Ex vivo radiometabolite analysis in mouse blood and urine (radio-TLC, radio-HPLC); settings: for radiotracer intact in blood and urine: 60 min post injection, ex vivo
Procedure: After tracer injection, CO2 asphyxiation, and cervical dislocation, blood was collected from a cardiac puncture into a tube containing 2 μL of 1% heparin (diluted from 5100 IU/mL) in 0.9% NaCl (aq.). The sample was centrifuged (1000g, 10 min) to separate the plasma from the blood cells. Cold acetonitrile (2 × vol of plasma) was added and centrifuged (10,000g for 5 min) to precipitate the proteins. A sample (100 μL) of the supernatant was injected into HPLC for radio-HPLC analysis. For the tracer [^18F]14, the supernatant was sampled also on TLC for digital autoradiography analysis.
Whole blood from mice were extracted during ex vivo studies, using cardiac puncture. The sample was applied in a microtube containing 1% heparin solution in 0.9% NaCl (aq.) (2 μL); the sample was centrifuged (1000g, 10 min), the total radioactivity in the sample was measured with a γ counter, the supernatant was separated from the pellet (RBC containing fraction), and cold ACN (500 μL) was added. The sample was centrifuged (10,000g, 5 min) to remove the free fraction from the precipitated protein-containing pellet. The pellet (protein-bound fraction) and the supernatant (free fraction) were measured with a γ counter, and a sample (100 μL) was injected into HPLC and spotted (4 μL) on a TLC plate (radio-TLC, TLC silica gel 60 F254, ACN/water 80:20).
Figure S26. Ex vivo stability of [18F]AmBF3-PEG4-TOC ([18F]14) in AR42J tumor bearing mouse blood 5 and 30 minutes post-injection (Radio-TLC). […]
retardation factor (Rf) of Rf = 40 mm. At 30 minutes post-injection the radiometabolite at 40 mm had disappeared and instead a highly polar metabolite (2.8%) at 4.0 mm was visible, and was accompanied by another metabolite (2.0%) eluting in the immediate vicinity of [18F]14 at Rf = 58 mm. At 60 minutes post-injection the tracer accounted for ≥99% of the radioactivity both in blood and urine (ex vivo). […]
(1 picture or pasted object on this page, not shown here)

[4] = 30 minutes post-injection, radio-TLC

SMILES | logD [1] | stability in the formulated solution ([2]; sampled at 9 h) | slightly polar metabolite in blood (Rf = 40 mm) ([3]; 5 minutes post-injection, radio-TLC) [%] | another metabolite in blood (Rf = 58 mm) [3, 4] [%] | highly polar metabolite in blood (4.0 mm) [3, 4] [%] | radiotracer intact in blood and urine [3] | radiotracer intact in blood and urine ([3]; listed as [18F]14) [%] | log D7.4 [1] | stability in the formulated solution ([2]; several time points up to 6 h)
C[C@@H](O)[C@@H]1NC(=O)[C@H](CCCCN)NC(=O)[C@@H](Cc2c[nH]c3ccccc23)NC(=O)[C@H](Cc2ccc(O)cc2)NC(=O)[C@@H](NC(=O)[C@@H](Cc2ccccc2)NC(=O)CCOCCOCCOCCOCCON=Cc2ccc(CNC(=O)OC3CCCc4cnnc(-c5ccc(CC(=O)NCC[N+](C)(C)C[B-](F)(F)F)cc5)c4CC3)cc2)CSSC[C@@H](C(=O)N[C@H](CO)[C@@H](C)O)NC1=O (stereo partly shown) [[^18F]14] | -0.58 ± 0.06 | stable | 4 | 2.0 | 2.8 | approximately 99% | ≥ 99 | – | –
C[C@@H](O)[C@@H]1NC(=O)[C@H](CCCCN)NC(=O)[C@@H](Cc2c[nH]c3ccccc23)NC(=O)[C@H](Cc2ccc(O)cc2)NC(=O)[C@@H](NC(=O)[C@@H](Cc2ccccc2)NC(=O)CCOCCOCCOCCOCCON=Cc2ccc(C(=O)NCCOCCOCCOCCNC(=O)OC3CCCc4cnnc(-c5ccc(CC(=O)NCC[N+](C)(C)C[B-](F)(F)F)cc5)c4CC3)cc2)CSSC[C@@H](C(=O)N[C@H](CO)[C@@H](C)O)NC1=O (stereo partly shown) [[^18F]15] | -0.7 ± 0.1 | – | – | – | – | – | – | −0.73 ± 0.12 | stable

Source: paper PMC9305971, “Development of [^18F]AmBF3 Tetrazine for Radiolabeling of Peptides: Preclinical Evaluation and PET Imaging of [^18F]AmBF3-PEG7-Tyr^3-Octreotide in an AR42J Pancreatic Carcinoma Model” (Bioconjugate Chemistry, 2022)
